Laboratory results taken from publication PMC4490784, “Compensatory induction of MYC expression by sustained CDK9 inhibition via a BRD4-dependent mechanism” (eLife, 2015).

Tests used:
Test in all cases: KINOMEscan binding assay
[1] = biological target: T1, ABL1(F317I)-phosphorylated (Homo sapiens, UniProt P00519, F317I); details: 1 µM i-CDK9; read-out: % Retention on Solid Support
T1 construct: purchased DiscoveRx KINOMEscan
Description: (§1) As there are no commercial or in-house kinase assays available for CDK3, CDK5, CDK11 and CDK13, the inhibitory abilities of i-CDK9 toward these CDKs were thus evaluated in the DiscoveRx KINOMEscan assay, which is based on a proprietary active site-directed competition-binding platform ([Fabian et al., 2005]).
(§2) The inhibitory activity of i-CDK9 for CDK1-CycB (Upstate/Millipore), CDK2-CycA (Invitrogen), CDK4-CycD1 (Novartis), CDK7-CycH-MAT1 (Invitrogen), and CDK9-CycT1 (Invitrogen) was assessed in the AlphaScreen (PerkinElmer, Inc)-based kinase assay developed at Novartis. Briefly, each CDK–cyclin pair was pre-incubated with i-CDK9 for 15 min, followed by addition of kinase substrates (ELK for CDK1 and CDK2, RB for CDK4, and CDK7tide for CDK7 and CDK9). The mixture was incubated at room temperature for additional 4–5 hr. The reaction was stopped and read on Envision (PerkinElmer, Inc). Selectivity against a large panel of over 400 kinases was evaluated using the KINOMEscan platform (DiscoveRx, CA) employing a proprietary active site-directed competition binding assay ([Fabian et al., 2005]). The assay was conducted at two different concentrations of i-CDK9 (1 and 10 µM) by DiscoveRx.

ACVRL1 = biological target: T2, ACVRL1 (Homo sapiens, UniProt P37023); details: read-out: % Retention on Solid Support
T2 construct: purchased DiscoveRx KINOMEscan
Description: as §1, §2

BLK = biological target: T3, BLK (Homo sapiens, UniProt P51451); details: read-out: % Retention on Solid Support
T3 construct: purchased DiscoveRx KINOMEscan
Description: as §1, §2

BRK = biological target: T4, BRK (Homo sapiens, UniProt Q13882); details: read-out: % Retention on Solid Support
T4 construct: purchased DiscoveRx KINOMEscan
Description: as §1, §2

CAMK4 = biological target: T5, CAMK4 (Homo sapiens, UniProt Q16566); details: read-out: % Retention on Solid Support
T5 construct: purchased DiscoveRx KINOMEscan
Description: as §1, §2

CDK5 = biological target: T6, CDK5 (Homo sapiens, UniProt Q00535); details: read-out: % Retention on Solid Support
T6 construct: purchased DiscoveRx KINOMEscan
Description: as §1, §2

CDKL2 = biological target: T7, CDKL2 (Homo sapiens, UniProt Q92772); details: read-out: % Retention on Solid Support
T7 construct: purchased DiscoveRx KINOMEscan
Description: as §1, §2

DAPK3 = biological target: T8, DAPK3 (Homo sapiens, UniProt O43293); details: read-out: % Retention on Solid Support
T8 construct: purchased DiscoveRx KINOMEscan
Description: as §1, §2

EGFR(G719C) = biological target: T9, EGFR(G719C) (Homo sapiens, UniProt P00533, G719C)
T9 construct: purchased DiscoveRx KINOMEscan
Description: as §1, §2

EIF2AK1 = biological target: T10, EIF2AK1 (Homo sapiens, UniProt Q9BQI3); details: 1 µM i-CDK9; read-out: % Retention on Solid Support
T10 construct: purchased DiscoveRx KINOMEscan
Description: as §1, §2

EPHB3 = biological target: T11, EPHB3 (Homo sapiens, UniProt P54753); details: read-out: % Retention on Solid Support
T11 construct: purchased DiscoveRx KINOMEscan
Description: as §1, §2

ERK5 = biological target: T12, ERK5 (Homo sapiens, UniProt Q13164); details: read-out: % Retention on Solid Support
T12 construct: purchased DiscoveRx KINOMEscan
Description: as §1, §2

FRK = biological target: T13, FRK (Homo sapiens, UniProt P42685); details: read-out: % Retention on Solid Support
T13 construct: purchased DiscoveRx KINOMEscan
Description: as §1, §2

ICK = biological target: T14, ICK (Homo sapiens, UniProt Q9UPZ9); details: read-out: % Retention on Solid Support
T14 construct: purchased DiscoveRx KINOMEscan
Description: as §1, §2

MAP3K3 = biological target: T15, MAP3K3 (Homo sapiens, UniProt Q99759); details: read-out: % Retention on Solid Support
T15 construct: purchased DiscoveRx KINOMEscan
Description: as §1, §2

MUSK = biological target: T16, MUSK (Homo sapiens, UniProt O15146); details: read-out: % Retention on Solid Support
T16 construct: purchased DiscoveRx KINOMEscan
Description: as §1, §2

MYO3B = biological target: T17, MYO3B (Homo sapiens, UniProt Q8WXR4); details: read-out: % Retention on Solid Support
T17 construct: purchased DiscoveRx KINOMEscan
Description: as §1, §2

NEK5 = biological target: T18, NEK5 (Homo sapiens, UniProt Q6P3R8); details: read-out: % Retention on Solid Support
T18 construct: purchased DiscoveRx KINOMEscan
Description: as §1, §2

PHKG1 = biological target: T19, PHKG1 (Homo sapiens, UniProt Q16816); details: read-out: % Retention on Solid Support
T19 construct: purchased DiscoveRx KINOMEscan
Description: as §1, §2

PIK3CB = biological target: T20, PIK3CB (Homo sapiens, UniProt P42338); details: read-out: % Retention on Solid Support
T20 construct: purchased DiscoveRx KINOMEscan
Description: as §1, §2

PIP5K1A = biological target: T21, PIP5K1A (Homo sapiens, UniProt Q99755); details: read-out: % Retention on Solid Support
T21 construct: purchased DiscoveRx KINOMEscan
Description: as §1, §2

PKAC-alpha = biological target: T22, PKAC-alpha (Homo sapiens, UniProt P17612); details: read-out: % Retention on Solid Support
T22 construct: purchased DiscoveRx KINOMEscan
Description: as §1, §2

PRKCD = biological target: T23, PRKCD (Homo sapiens, UniProt Q05655); details: read-out: % Retention on Solid Support
T23 construct: purchased DiscoveRx KINOMEscan
Description: as §1, §2

PRKCH = biological target: T24, PRKCH (Homo sapiens, UniProt P24723); details: read-out: % Retention on Solid Support
T24 construct: purchased DiscoveRx KINOMEscan
Description: as §1, §2

RIOK2 = biological target: T25, RIOK2 (Homo sapiens, UniProt Q9BVS4); details: read-out: % Retention on Solid Support
T25 construct: purchased DiscoveRx KINOMEscan
Description: as §1, §2

[2] = biological target: T26, RSK3(Kin.Dom.2-C-terminal) (Homo sapiens, UniProt Q15349); details: read-out: % Retention on Solid Support
T26 construct: RSK3(Kin.Dom.2-C-terminal); purchased DiscoveRx KINOMEscan
Description: as §1, §2

TRKC = biological target: T27, TRKC (Homo sapiens, UniProt Q16288); details: read-out: % Retention on Solid Support
T27 construct: purchased DiscoveRx KINOMEscan
Description: as §1, §2

TXK = biological target: T28, TXK (Homo sapiens, UniProt P42681); details: read-out: % Retention on Solid Support
T28 construct: purchased DiscoveRx KINOMEscan
Description: as §1, §2

p38-beta = biological target: T29, p38-beta (Homo sapiens, UniProt Q15759); details: read-out: % Retention on Solid Support
T29 construct: purchased DiscoveRx KINOMEscan
Description: as §1, §2

T7 sequence (Q92772 whole entry): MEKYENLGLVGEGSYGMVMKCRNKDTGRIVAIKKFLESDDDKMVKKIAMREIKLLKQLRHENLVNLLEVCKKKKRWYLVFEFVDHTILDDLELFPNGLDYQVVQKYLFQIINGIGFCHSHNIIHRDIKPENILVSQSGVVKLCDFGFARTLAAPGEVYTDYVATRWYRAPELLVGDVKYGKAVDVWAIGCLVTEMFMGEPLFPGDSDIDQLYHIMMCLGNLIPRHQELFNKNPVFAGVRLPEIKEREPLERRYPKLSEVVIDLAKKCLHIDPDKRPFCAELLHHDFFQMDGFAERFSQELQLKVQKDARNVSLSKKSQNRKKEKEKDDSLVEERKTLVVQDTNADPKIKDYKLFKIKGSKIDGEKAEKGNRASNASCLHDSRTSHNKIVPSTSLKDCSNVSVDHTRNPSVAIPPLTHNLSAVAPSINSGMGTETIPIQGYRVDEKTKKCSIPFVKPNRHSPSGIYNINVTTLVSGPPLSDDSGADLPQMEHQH
T18 sequence (Q6P3R8 whole entry): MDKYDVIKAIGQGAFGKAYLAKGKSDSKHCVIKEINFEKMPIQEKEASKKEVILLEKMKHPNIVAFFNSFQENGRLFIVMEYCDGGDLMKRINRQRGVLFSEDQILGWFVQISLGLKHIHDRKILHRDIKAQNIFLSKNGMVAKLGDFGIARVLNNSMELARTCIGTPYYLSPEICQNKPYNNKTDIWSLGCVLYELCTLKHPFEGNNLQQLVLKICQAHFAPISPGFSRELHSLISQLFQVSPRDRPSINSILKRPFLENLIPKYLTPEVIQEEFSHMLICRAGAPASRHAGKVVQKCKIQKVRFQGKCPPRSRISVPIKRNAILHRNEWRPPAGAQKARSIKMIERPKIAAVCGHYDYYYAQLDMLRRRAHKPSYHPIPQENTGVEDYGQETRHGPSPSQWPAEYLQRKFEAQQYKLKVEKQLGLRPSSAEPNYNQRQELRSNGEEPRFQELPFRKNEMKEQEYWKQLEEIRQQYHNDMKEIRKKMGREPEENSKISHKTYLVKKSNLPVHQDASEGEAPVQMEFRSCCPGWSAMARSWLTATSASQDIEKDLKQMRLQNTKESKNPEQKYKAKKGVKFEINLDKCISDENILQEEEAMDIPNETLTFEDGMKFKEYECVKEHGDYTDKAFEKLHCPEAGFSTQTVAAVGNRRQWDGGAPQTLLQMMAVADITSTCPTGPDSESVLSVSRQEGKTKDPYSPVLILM
T16 sequence (O15146 24-869): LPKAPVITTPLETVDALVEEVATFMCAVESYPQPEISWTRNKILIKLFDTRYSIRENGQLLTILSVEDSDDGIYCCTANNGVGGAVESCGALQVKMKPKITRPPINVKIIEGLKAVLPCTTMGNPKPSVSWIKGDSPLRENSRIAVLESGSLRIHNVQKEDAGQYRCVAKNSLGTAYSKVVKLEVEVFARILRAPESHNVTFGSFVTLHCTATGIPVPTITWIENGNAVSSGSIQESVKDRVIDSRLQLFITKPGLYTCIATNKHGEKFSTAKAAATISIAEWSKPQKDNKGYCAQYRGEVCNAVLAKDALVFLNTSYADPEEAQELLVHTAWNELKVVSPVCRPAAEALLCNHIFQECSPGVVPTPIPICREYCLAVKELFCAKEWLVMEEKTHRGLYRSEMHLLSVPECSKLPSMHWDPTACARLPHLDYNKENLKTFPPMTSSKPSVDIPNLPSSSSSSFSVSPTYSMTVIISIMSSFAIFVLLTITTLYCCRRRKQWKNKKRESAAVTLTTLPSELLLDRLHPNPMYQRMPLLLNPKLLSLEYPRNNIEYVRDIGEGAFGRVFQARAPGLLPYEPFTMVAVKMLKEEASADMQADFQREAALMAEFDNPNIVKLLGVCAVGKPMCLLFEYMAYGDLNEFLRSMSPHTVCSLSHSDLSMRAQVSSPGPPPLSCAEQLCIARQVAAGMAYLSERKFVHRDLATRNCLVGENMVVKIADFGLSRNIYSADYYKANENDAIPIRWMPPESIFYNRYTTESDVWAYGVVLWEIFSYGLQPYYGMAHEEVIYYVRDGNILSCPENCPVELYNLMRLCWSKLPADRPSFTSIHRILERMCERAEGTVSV
T17 sequence (Q8WXR4 whole entry): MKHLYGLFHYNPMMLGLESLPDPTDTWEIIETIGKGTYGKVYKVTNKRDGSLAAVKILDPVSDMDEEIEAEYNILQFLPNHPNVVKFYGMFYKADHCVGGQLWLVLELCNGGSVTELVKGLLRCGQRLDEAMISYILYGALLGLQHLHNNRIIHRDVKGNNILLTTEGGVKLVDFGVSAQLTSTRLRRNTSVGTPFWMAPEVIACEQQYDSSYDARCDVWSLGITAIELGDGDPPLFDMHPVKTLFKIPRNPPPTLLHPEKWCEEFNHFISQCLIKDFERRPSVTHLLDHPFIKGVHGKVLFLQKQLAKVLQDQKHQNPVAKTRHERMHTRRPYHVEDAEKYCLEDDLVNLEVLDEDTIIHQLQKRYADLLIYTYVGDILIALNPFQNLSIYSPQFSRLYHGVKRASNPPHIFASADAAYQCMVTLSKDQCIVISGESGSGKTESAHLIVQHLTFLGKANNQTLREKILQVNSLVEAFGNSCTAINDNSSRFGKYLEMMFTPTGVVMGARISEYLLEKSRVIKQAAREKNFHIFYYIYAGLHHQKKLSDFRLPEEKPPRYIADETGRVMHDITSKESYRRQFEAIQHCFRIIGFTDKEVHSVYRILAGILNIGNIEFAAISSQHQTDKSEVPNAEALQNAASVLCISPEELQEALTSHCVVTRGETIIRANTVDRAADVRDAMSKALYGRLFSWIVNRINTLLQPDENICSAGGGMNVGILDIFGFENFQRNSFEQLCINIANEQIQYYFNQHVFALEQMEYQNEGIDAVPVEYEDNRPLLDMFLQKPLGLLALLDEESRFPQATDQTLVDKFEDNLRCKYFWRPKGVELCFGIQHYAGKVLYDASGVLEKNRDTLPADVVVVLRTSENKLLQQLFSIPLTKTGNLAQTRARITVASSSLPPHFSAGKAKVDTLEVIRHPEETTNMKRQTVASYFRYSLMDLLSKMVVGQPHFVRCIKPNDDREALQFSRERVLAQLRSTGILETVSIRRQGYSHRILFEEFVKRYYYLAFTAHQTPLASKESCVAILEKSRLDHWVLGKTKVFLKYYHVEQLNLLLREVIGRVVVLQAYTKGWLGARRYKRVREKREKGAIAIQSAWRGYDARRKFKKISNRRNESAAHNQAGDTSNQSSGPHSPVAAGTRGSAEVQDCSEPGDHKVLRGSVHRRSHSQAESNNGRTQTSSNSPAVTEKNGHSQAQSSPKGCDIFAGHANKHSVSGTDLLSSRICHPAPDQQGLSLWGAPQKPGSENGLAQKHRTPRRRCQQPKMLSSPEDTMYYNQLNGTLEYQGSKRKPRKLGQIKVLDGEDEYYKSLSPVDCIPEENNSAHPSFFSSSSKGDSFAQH
T19 sequence (Q16816 whole entry): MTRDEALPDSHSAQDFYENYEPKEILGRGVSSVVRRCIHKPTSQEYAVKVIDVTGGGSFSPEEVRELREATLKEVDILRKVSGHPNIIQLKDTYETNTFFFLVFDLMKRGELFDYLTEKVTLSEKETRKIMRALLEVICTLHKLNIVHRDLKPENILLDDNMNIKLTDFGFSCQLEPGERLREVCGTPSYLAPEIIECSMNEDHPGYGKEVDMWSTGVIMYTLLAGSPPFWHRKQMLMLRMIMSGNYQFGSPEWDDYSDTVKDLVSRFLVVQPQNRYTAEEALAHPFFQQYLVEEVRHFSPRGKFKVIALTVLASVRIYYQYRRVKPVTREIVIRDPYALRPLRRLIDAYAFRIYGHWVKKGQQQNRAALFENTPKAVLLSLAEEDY
T21 sequence (Q99755 whole entry): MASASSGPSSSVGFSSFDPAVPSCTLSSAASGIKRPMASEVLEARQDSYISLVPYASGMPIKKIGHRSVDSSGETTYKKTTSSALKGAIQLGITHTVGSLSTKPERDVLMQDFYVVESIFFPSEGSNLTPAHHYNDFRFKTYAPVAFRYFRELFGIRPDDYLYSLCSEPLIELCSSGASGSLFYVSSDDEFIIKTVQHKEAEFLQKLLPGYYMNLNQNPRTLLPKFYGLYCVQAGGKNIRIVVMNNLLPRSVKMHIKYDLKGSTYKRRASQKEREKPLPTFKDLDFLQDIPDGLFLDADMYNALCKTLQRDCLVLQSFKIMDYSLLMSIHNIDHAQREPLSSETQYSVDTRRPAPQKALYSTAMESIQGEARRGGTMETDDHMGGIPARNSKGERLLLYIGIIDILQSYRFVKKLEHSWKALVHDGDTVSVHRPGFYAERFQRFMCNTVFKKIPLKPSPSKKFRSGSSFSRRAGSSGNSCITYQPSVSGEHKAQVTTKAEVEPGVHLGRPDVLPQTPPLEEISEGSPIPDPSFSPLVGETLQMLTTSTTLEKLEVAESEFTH
T8 sequence (O43293 whole entry): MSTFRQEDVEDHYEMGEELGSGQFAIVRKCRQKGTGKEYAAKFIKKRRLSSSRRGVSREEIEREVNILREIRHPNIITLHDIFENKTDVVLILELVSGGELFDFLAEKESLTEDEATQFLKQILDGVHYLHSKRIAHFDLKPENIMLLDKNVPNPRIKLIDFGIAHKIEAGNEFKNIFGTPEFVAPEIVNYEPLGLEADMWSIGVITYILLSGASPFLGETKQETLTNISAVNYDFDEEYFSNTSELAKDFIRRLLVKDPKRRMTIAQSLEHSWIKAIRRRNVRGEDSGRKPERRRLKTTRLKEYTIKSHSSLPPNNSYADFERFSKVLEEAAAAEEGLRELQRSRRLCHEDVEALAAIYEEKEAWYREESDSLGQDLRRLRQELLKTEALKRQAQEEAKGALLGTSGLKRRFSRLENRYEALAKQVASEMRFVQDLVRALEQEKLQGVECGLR

`N[C@H]1CC[C@H](Nc2cc(-c3cccc(NCc4cccc(F)c4)n3)c(Cl)cn2)CC1` [i-CDK9, N2′-(trans-4-aminocyclohexyl)-5′-chloro-N6-(3-fluorobenzyl)-2,4′-bipyridine-2′,6-diamine] gave a remaining binding at 1 µM [1] of 100%, a remaining binding at 1 µM (ACVRL1; 1 µM i-CDK9) of 95% and a remaining binding at 10 µM (ACVRL1; 10 µM i-CDK9) of 100%. The remaining binding at 1 µM (BLK; 1 µM i-CDK9) was 100%, the remaining binding at 10 µM (BLK; 10 µM i-CDK9) was 100% and the remaining binding at 1 µM (BRK; 1 µM i-CDK9) was 70%. It also gave a remaining binding at 10 µM (BRK; 10 µM i-CDK9) of 100%, a remaining binding at 1 µM (CAMK4; 1 µM i-CDK9) of 78% and a remaining binding at 10 µM (CAMK4; 10 µM i-CDK9) of 100%. For the same compound, the remaining binding at 1 µM (CDK5; 1 µM i-CDK9) was 100%, the remaining binding at 10 µM (CDK5; 10 µM i-CDK9) was 81% and the remaining binding at 1 µM (CDKL2; 1 µM i-CDK9) was 80%. For the same compound, the remaining binding at 10 µM (CDKL2; 10 µM i-CDK9) was 14%, the remaining binding at 1 µM (DAPK3; 1 µM i-CDK9) was 90% and the remaining binding at 10 µM (DAPK3; 10 µM i-CDK9) was 70%. For the same compound, the “% Retention on Solid Support” value (EGFR(G719C); 1 µM i-CDK9) was 86%, the “% Retention on Solid Support” value (EGFR(G719C); 10 µM i-CDK9) was 46% and the remaining binding at 1 µM (EIF2AK1) was 85%. It also gave a remaining binding at 1 µM (EPHB3; 1 µM i-CDK9) of 100%, a remaining binding at 10 µM (EPHB3; 10 µM i-CDK9) of 95% and a remaining binding at 1 µM (ERK5; 1 µM i-CDK9) of 100%. For the same compound, the remaining binding at 10 µM (ERK5; 10 µM i-CDK9) was 92%, the remaining binding at 1 µM (FRK; 1 µM i-CDK9) was 72% and the remaining binding at 10 µM (FRK; 10 µM i-CDK9) was 100%. It also gave a remaining binding at 1 µM (ICK; 1 µM i-CDK9) of 85%, a remaining binding at 10 µM (ICK; 10 µM i-CDK9) of 3% and a remaining binding at 1 µM (MAP3K3; 1 µM i-CDK9) of 100%. It also gave a remaining binding at 10 µM (MAP3K3; 10 µM i-CDK9) of 93%, a remaining binding at 1 µM (MUSK; 1 µM i-CDK9) of 88% and a remaining binding at 10 µM (MUSK; 10 µM i-CDK9) of 100%. The remaining binding at 1 µM (MYO3B; 1 µM i-CDK9) was 100%, the remaining binding at 10 µM (MYO3B; 10 µM i-CDK9) was 36% and the remaining binding at 1 µM (NEK5; 1 µM i-CDK9) was 88%. The remaining binding at 10 µM (NEK5; 10 µM i-CDK9) was 100%, the remaining binding at 1 µM (PHKG1; 1 µM i-CDK9) was 100% and the remaining binding at 10 µM (PHKG1; 10 µM i-CDK9) was 100%. The remaining binding at 1 µM (PIK3CB; 1 µM i-CDK9) was 68%, the remaining binding at 10 µM (PIK3CB; 10 µM i-CDK9) was 84% and the remaining binding at 1 µM (PIP5K1A; 1 µM i-CDK9) was 83%. For the same compound, the remaining binding at 10 µM (PIP5K1A; 10 µM i-CDK9) was 99%, the remaining binding at 1 µM (PKAC-alpha; 1 µM i-CDK9) was 86% and the remaining binding at 10 µM (PKAC-alpha; 10 µM i-CDK9) was 100%. For the same compound, the remaining binding at 1 µM (PRKCD; 1 µM i-CDK9) was 98%, the remaining binding at 10 µM (PRKCD; 10 µM i-CDK9) was 70% and the remaining binding at 1 µM (PRKCH; 1 µM i-CDK9) was 83%. It also gave a remaining binding at 10 µM (PRKCH; 10 µM i-CDK9) of 80%, a remaining binding at 1 µM (RIOK2; 1 µM i-CDK9) of 100% and a remaining binding at 10 µM (RIOK2; 10 µM i-CDK9) of 32%. For the same compound, the remaining binding at 1 µM ([2]; 1 µM i-CDK9) was 73%, the remaining binding at 10 µM ([2]; 10 µM i-CDK9) was 100% and the remaining binding at 1 µM (TRKC; 1 µM i-CDK9) was 63%. It also gave a remaining binding at 10 µM (TRKC; 10 µM i-CDK9) of 95%, a remaining binding at 1 µM (TXK; 1 µM i-CDK9) of 100% and a remaining binding at 10 µM (TXK; 10 µM i-CDK9) of 100%. It also gave a remaining binding at 1 µM (p38-beta; 1 µM i-CDK9) of 66% and a remaining binding at 10 µM (p38-beta; 10 µM i-CDK9) of 100%.
